According to US20260355330A1, “CELL PENETRATING PEPTIDES AND USES THEREOF” (VECTIOPEP OÜ, priority 2022, published 2026):

Experiments:
[1] = tested on: CHO-K1 cells; assay: Comparison of reporter levels in cells post-transfection of pDNA or mRNA delivered by CPPs; assay type: cell-based; details: in words; mRNA cargo; FIG. 2
Method: FIG. 2: Comparison of reporter levels in cells post-transfection of pDNA or mRNA delivered by CPPs (P14, NF55 and NF71; relative light units normalised to total protein in the cell lysate (RLU/mg)). Naked mRNA and untreated cells (UT) were used as controls.
Adherent CHO-K1 cells were grown in Dulbecco's Modified Eagle's Medium (DMEM), which were supplemented with 0.1 mM non-essential amino acids, 1.0 mM sodium pyruvate, 100 U/ml penicillin, and […]. For complete media, 10% (final) fetal bovine serum (FBS) was added. Cells were maintained in a humidified incubator at 37 °C, 5% CO2. Cell viability and confluence was assessed daily and the cell density was reduced regularly. For cell counting, we used the CytoSMART cell counter accompanied by 0.4% trypan blue staining prior measurement. The multi-well plates with cell cultures used for experiments were incubated in a humidified incubator at 37 °C, 5% CO2.
For in vitro experiments 0.1 μg of nucleic acid (plasmid DNA (pDNA) or mRNA) was used per 96-well plate well. For CPP/NA complex formation, the diluted NA was mixed with CPP in water. Complexes were formed based on the theoretical charge ratio (CR) of positive charges from the peptide in excess to the negative charges from nucleic acid backbone, at charge ratio 3:1 with peptide in excess. […]
For reporter luminescence (expressed from firefly luciferase encoding mRNA or plasmid pDNA) assessment in adherent cell culture, 10,000 cells per 96-well plate well were seeded in 100 μl of media one day prior to transfection. […]
24 hours post-transfection, the media was aspirated, cells were washed with 1×PBS, and 30 μl of lysis buffer (0.1% Triton X100 in 1×PBS) was added. […] From the lysate, 20 μl was transferred to a black frame white well 96-well plate for luminescence measurement after addition of substrate luciferin (PerkinElmer) in buffer. The luminescence signal was detected with GloMax® 96 microplate luminometer equipped with GloMax® 1.9.2 software (Promega). […]

[2] = tested on: spleen of BALB/c mice; assay: In vivo delivery of mRNA with CPPs - reporter levels in the spleen
Outline: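 CPP/mRNA complexes were formed at the indicated charge ratios in water for 30 min at room temperature, using 10 or 50 μg mRNA, then brought to 5% glucose. Complexes were injected intravenously via the tail vein into BALB/c mice. Spleens were harvested 16 h after the single injection, and luciferase (RLU) was measured in whole-tissue homogenate.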

[3] = tested on: spleen cell subtypes (T cells, macrophages, dendritic cells, rest of the lymphocytes); assay: Immunophenotyping the spleen cell subtypes post-transfection of mRNA with NF55 in vivo; design: species or system mice; details: in words; luciferase mRNA 30 μg, CR2, i.v., 16 h post-injection
Method: FIG. 6: Reporter levels detected from spleen cells subtypes collected from NF55/mRNA treated mice. Reporter protein levels were evaluated from the sorted splenocytes: T cells, Macrophages, Dendritic cells and the rest of the lymphocytes. Results are shown as the fold change compared to untreated mice.
To analyse the cell subtypes that were transfected with the CPP, 30 μg of luciferase-encoding mRNA was complexed with the CPP at CR2 in water and injected i.v. 16 h post-injection, the spleens were collected into ice-cold dissociation buffer (1×PBS without Ca^2+ and Mg^2+ supplemented with 2 mM EDTA). Following gentle mechanical dissociation by grinding, splenic cells were strained with 100 μm cell strainer and centrifuged for 5 min at +4 °C, 300×g. A 2-minute incubation with 1 ml of RBC lysis buffer ACK (Thermo) was used for the red blood cell lysis. Flow cytometry buffer (dissociation buffer supplemented with 0.5% (w/v) BSA) was added, cells were centrifuged for 5 min at +4 °C, 300×g and counted. […]
In order to determine to which types of spleen cells mRNA were transfected in vivo, cells collected from the spleens of transfected animals were sorted according to their subtype and the reporter expression measured. mRNA encoding luciferase (mRNA (luc)) was used as a reporter model.

[4] = in words; previously reported; cited from earlier work

Structure (SMILES): CCCCCCCCCCCCCCCCCC(=O)N[C@@H](C)C(=O)NCC(=O)N[C@@H](Cc1ccc(O)cc1)C(=O)N[C@@H](CC(C)C)C(=O)N[C@@H](CC(C)C)C(=O)NCC(=O)NCCC[C@H](N)C(=O)N[C@H](C(=O)N[C@@H](CC(N)=O)C(=O)N[C@@H](CC(C)C)C(=O)N[C@@H](CCCCN)C(=O)N[C@@H](C)C(=O)N[C@@H](CC(C)C)C(=O)N[C@@H](C)C(=O)N[C@@H](C)C(=O)N[C@@H](CC(C)C)C(=O)N[C@@H](C)C(=O)N[C@@H](CCCCN)C(=O)N[C@@H](C)C(=O)N[C@H](C(=O)N[C@@H](CC(C)C)C(N)=O)[C@@H](C)CC)[C@@H](C)CC [NF55]
- Efficiency of mRNA transfection (parallel pDNA/mRNA comparison) [1]: very efficient for mRNA transfection
- Efficacy of mRNA delivery into the spleen in vivo ([2]; in words, FIG. 5 / Table 5): delivered mRNA into the spleen in vivo with high efficacy
- Reporter levels in the spleen (RLU) ([2]; mRNA, tail vein injection, spleens harvested 16 hours after single injection, whole tissue homogenate): 124 363 RLU
- Reporter signal in spleen cell subtypes [3]: the majority of the reporter signal arose from the dendritic cells (DCs)
- pDNA delivery efficiency [4]: excellent vector for the delivery of DNA in vivo
